Source: patent publication US9975907B2, “Pyrimidinones as PI3K inhibitors” (Incyte Corporation, priority 2009, dated 2018)
Where a name gives a salt, the structure may show the parent alone.

What was measured:
[1] = system: Pfeiffer cell line (diffuse large B cell lymphoma); experiment: Pfeiffer Cell Proliferation Assay; format: cell-based; settings: 3-4 days, [3H]-thymidine incorporation
Description: Pfeiffer cell line (diffuse large B cell lymphoma) was purchased from ATCC (Manassas, Va.) and maintained in the culture medium recommended (RPMI and 10% FBS). To measure the anti-proliferation activity of the PI3Kδ submittals, the Pfeiffer cells were plated with the culture medium (2×10^3 cells/well/per 200 μl) into 96-well ultra-low binding plates (Corning, Corning, N.Y.), in the presence or absence of a concentration range of test compounds. After 3-4 days, [^3H]-thymidine (1 μCi/well) (PerkinElmer, Boston, Mass.) in PBS was then added to the cell culture for an additional 12 hrs before the incorporated radioactivity was separated by filtration with water through GF/B filters (Packard Bioscience, Meriden, Conn.) and measured by liquid scintillation counting with a TopCount (Packard Bioscience). See Table 3 for data related to compounds of the invention.

PI3Kδ (p110δ/p85α) [2] = target: T1, PI3Kδ (p110δ/p85α) (Homo sapiens (Human), UniProt O00329); experiment: PI3Kδ Scintillation Proximity Assay (Assay A3); format: biochemical; settings: column b, Assay A3 (SPA), 20 μM ATP
T1 sequence (O00329 whole entry, species assumed): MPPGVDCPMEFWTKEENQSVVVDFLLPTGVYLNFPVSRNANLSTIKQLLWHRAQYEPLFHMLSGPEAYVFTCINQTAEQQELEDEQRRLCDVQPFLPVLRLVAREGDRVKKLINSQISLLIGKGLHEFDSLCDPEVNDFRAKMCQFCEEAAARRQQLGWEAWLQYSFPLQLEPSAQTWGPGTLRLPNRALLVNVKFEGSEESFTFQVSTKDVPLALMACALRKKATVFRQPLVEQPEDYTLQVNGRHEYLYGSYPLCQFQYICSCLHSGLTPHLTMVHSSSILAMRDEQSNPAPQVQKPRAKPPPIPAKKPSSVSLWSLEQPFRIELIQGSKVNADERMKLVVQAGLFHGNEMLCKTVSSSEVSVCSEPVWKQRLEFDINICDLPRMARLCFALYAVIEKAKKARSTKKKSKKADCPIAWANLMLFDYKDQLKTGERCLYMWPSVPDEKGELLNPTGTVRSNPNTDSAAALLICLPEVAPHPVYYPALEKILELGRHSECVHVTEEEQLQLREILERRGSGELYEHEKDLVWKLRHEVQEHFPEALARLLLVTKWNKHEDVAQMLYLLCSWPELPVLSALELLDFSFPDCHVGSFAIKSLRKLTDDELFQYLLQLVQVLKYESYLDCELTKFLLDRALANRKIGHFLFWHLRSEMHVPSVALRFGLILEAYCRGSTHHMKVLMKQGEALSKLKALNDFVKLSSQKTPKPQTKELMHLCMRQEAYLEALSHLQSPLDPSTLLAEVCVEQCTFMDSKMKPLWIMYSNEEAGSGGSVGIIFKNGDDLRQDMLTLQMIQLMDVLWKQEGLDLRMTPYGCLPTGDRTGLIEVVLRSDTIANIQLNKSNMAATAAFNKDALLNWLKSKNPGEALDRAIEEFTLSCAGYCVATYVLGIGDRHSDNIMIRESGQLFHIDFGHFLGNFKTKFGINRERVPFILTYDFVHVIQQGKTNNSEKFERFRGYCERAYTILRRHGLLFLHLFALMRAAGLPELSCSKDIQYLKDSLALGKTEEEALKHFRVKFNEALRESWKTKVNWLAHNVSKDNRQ
T1 sequence (P27986 whole entry partner, species assumed): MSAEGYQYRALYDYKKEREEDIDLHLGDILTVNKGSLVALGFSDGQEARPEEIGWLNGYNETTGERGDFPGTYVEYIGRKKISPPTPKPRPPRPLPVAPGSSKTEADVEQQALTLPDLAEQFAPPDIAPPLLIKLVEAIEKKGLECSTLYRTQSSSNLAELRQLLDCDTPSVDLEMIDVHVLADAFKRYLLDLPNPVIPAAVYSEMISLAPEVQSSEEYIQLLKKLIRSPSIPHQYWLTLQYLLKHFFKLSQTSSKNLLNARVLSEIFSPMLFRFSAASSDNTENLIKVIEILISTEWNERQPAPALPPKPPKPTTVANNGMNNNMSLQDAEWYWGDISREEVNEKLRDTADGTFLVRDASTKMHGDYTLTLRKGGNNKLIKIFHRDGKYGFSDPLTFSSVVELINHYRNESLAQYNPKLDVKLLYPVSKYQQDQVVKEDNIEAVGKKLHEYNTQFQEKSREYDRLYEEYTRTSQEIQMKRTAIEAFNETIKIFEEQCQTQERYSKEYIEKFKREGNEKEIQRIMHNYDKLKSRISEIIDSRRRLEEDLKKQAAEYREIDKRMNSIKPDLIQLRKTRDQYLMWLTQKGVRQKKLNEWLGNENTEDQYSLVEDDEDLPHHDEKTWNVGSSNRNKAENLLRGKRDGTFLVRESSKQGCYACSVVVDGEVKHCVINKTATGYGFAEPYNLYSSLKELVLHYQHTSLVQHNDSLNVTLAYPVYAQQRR
How it was run: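 Human p110δ/p85α (4 nM) with 20 μM diC8-PIP2 and 20 μM ATP plus [γ-33P]ATP, 210 min at room temperature in 20 mM MOPS pH 6.7, 10 mM MgCl2, 5 mM DTT, 0.03% CHAPS, 0.5% DMSO. Product captured on WGA SPA beads in EDTA quench; IC50 from percent-control versus log concentration fit.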

PI3Kγ = PI3Kγ (Homo sapiens (Human), UniProt P48736); experiment: PI3K Enzyme Assay A2 ([γ-33P]ATP filter plate), PI3Kγ; format: biochemical; settings: Assay A2, 1000 μM ATP
PI3Kγ, sequence (P48736 whole entry, species assumed, canonical isoform): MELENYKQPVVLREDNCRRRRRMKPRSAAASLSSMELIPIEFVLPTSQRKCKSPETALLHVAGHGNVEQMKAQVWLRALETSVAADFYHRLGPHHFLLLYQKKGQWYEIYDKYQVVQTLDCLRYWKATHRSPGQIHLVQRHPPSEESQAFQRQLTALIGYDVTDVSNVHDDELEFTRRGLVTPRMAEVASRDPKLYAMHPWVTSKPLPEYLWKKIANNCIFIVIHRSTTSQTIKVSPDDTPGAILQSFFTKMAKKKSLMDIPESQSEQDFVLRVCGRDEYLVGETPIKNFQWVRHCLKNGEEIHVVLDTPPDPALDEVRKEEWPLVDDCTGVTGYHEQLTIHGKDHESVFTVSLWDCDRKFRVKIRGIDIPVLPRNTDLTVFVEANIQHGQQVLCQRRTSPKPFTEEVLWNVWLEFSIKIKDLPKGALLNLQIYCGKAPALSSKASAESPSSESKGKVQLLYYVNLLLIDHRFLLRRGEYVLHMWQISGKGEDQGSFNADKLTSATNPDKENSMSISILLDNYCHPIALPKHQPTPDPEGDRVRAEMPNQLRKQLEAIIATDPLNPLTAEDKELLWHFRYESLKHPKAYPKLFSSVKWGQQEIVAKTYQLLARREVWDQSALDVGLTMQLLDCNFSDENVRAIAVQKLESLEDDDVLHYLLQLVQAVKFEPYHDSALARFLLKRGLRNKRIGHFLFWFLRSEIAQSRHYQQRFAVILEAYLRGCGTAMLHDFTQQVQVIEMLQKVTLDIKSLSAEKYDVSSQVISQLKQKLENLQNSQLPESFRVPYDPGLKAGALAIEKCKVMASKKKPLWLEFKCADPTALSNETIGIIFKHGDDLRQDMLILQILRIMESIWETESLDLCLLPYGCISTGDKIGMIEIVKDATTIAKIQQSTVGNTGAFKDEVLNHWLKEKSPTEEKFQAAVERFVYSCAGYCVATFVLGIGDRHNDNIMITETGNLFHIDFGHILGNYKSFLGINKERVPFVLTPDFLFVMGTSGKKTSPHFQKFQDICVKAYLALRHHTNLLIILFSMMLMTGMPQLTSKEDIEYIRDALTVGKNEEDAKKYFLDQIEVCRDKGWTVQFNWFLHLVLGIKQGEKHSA
Description: Materials: Lipid kinase substrate, phosphoinositol-4,5-bisphosphate (PIP2), was purchased from Echelon Biosciences (Salt Lake City, Utah). PI3K isoforms α, β, δ and γ were purchased from Millipore (Bedford, Mass.). ATP, MgCh, DTT, EDTA, MOPS and CHAPS were purchased from Sigma-Aldrich (St. Louis, Mo.).
(§1) The kinase reaction was conducted in clear-bottom 96-well plate from Thermo Fisher Scientific in a final volume of 24 μL. Inhibitors were first diluted serially in DMSO and added to the plate wells before the addition of other reaction components. The final concentration of DMSO in the assay was 0.5%. The PI3K assays were carried out at room temperature in 20 mM MOPS, pH 6.7, 10 mM MgCl2, 5 mM DTT and CHAPS 0.03%. The reaction mixture was prepared containing 50 μM PIP2, kinase and varying concentration of inhibitors. Reactions were initiated by the addition of ATP containing 2.2 μCi [γ-^33P]ATP to a final concentration of 1000 μM. The final concentration of PI3K isoforms α, β, δ and γ in the assay were 1.3, 9.4, 2.9 and 10.8 nM respectively. Reactions were incubated for 180 min and terminated by the addition of 100 μL of 1 M potassium phosphate pH 8.0, 30 mM EDTA quench buffer. A 100 μL aliquot of the reaction solution was then transferred to 96-well Millipore MultiScreen IP 0.45 μm PVDF filter plate (The filter plate was prewetted with 200 μL 100% ethanol, distilled water, and 1 M potassium phosphate pH 8.0, respectively). The filter plate was aspirated on a Millipore Manifold under vacuum and washed with 18×200 μL wash buffer containing 1 M potassium phosphate pH 8.0 and 1 mM ATP. After drying by aspiration and blotting, the plate was air dried in an incubator at 37° C. overnight. Packard TopCount adapter (Millipore) was then attached to the plate followed with addition of 120 μL Microscint 20 scintillation cocktail (Perkin Elmer) in each well. After the plate sealing, the radioactivity of the product was determined by scintillation counting on Topcount (Perkin-Elmer). IC50 determination was performed by fitting the curve of percent control activity versus the log of the inhibitor concentration using the GraphPad Prism 3.0 software. […] See Table 1 for data related to compounds of the invention.

PI3Kβ = PI3Kβ (Homo sapiens (Human), UniProt P42338); experiment: PI3K Enzyme Assay A2 ([γ-33P]ATP filter plate), PI3Kβ; format: biochemical; settings: Assay A2, 1000 μM ATP
PI3Kβ, sequence (P42338 whole entry, species assumed, canonical isoform): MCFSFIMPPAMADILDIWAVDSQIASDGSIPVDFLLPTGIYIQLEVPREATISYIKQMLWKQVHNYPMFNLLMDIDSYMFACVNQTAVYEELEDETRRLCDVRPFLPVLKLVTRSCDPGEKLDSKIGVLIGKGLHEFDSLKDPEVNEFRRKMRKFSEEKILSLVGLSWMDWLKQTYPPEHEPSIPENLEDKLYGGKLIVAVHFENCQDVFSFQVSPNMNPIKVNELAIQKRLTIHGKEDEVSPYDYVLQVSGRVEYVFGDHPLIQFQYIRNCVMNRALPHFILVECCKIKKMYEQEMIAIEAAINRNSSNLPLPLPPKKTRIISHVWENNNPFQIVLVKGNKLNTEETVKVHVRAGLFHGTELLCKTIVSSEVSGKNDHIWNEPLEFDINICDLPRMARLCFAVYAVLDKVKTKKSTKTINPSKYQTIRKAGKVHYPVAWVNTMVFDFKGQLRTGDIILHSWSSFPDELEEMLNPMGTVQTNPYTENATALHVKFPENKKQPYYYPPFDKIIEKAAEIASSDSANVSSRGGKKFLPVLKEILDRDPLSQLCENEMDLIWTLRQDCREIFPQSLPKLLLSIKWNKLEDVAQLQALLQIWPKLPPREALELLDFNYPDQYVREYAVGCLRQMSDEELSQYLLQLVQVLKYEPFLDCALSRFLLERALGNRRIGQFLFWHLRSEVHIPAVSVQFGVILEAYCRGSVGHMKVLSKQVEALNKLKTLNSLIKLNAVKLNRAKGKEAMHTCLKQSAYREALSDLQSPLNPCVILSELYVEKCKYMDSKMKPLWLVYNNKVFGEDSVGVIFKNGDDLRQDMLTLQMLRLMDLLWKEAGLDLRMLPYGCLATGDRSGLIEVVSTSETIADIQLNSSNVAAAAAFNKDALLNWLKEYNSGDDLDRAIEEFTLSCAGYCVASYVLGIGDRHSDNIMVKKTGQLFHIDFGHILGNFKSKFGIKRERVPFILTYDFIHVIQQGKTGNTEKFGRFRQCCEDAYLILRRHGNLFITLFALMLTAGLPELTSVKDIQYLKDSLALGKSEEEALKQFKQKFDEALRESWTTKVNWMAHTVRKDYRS
PI3Kβ, sequence (P27986 whole entry partner, species assumed, canonical isoform): as the sequence (P27986 whole entry partner, species assumed) above
Description: as §1, with “Materials: Lipid kinase substrate, phosphoinositol-4,5-bisphosphate (PIP2), was purchased from Echelon Biosciences (Salt Lake City, Utah). PI3K isoforms α, β, δ and γ were purchased from Millipore (Bedford, Mass.). ATP, MgCh, DTT, EDTA, MOPS and CHAPS were purchased from Sigma-Aldrich (St. Louis, Mo.). The kinase” for “The kinase”, “1000 μM. […] Reactions were” for “1000 μM. The final concentration of PI3K isoforms α, β, δ and γ in the assay were 1.3, 9.4, 2.9 and 10.8 nM respectively. Reactions were”

PI3Kδ (p110δ/p85α) [3] = target: T1, PI3Kδ (p110δ/p85α); experiment: AlphaScreen Assay for PI3Kδ (Assay A1); format: biochemical; settings: column a, 20 μM ATP
Text: PI3-Kinase luminescent assay kit including lipid kinase substrate, D-myo-phosphatidylinositol 4,5-bisphosphate (PtdIns(4,5)P2)D (+)-sn-1,2-di-O-octanoylglyceryl, 3-O-phospho linked (PIP2), biotinylated I(1,3,4,5)P4, PI(3,4,5)P3 Detector Protein, was purchased from Echelon Biosciences (Salt Lake City, Utah). AlphaScreen™ GST Detection Kit including donor and acceptor beads was purchased from PerkinElmer Life Sciences (Waltham, Mass.). PI3Kδ (p110δ/p85α) was purchased from Millipore (Bedford, Mass.). ATP, MgCb, DTT, EDTA, HEPES and CHAPS were purchased from Sigma-Aldrich (St. Louis, Mo.).
AlphaScreen™ Assay for PI3Kδ
The kinase reaction was conducted in 384-well REMP plate from Thermo Fisher Scientific in a final volume of 40 μL. Inhibitors were first diluted serially in DMSO and added to the plate wells before the addition of other reaction components. The final concentration of DMSO in the assay was 2%. The PI3K assays were carried out at room temperature in 50 mM HEPES, pH 7.4, 5 mM MgCl2, 50 mM NaCl, 5 mM DTT and CHAPS 0.04%. Reactions were initiated by the addition of ATP, the final reaction mixture consisted of 20 μM PIP2, 20 μM ATP, 1.2 nM PI3Kδ were incubated for 20 min. 10 μL of reaction mixture was then transferred to 5 μL 50 nM biotinylated I(1,3,4,5)P4 in quench buffer: 50 mM HEPES pH 7.4, 150 mM NaCl, 10 mM EDTA, 5 mM DTT, 0.1% Tween-20, followed with the addition of 10 μL AlphaScreen™ donor and acceptor beads suspended in quench buffer containing 25 nM PI(3,4,5)P3 detector protein. The final concentration of both donor and acceptor beads is […]. After plate sealing, the plate was incubated in a dark location at room temperature for 2 hours. The activity of the product was determined on Fusion-alpha microplate reader (Perkin-Elmer). IC50 determination was performed by fitting the curve of percent control activity versus the log of the inhibitor concentration using the GraphPad Prism 3.0 software.

[4] = system: purified B cells from human PBMC; experiment: B Cell Proliferation Assay; format: cell-based; settings: anti-human IgM stimulated, three days, [3H]-thymidine incorporation
Description: To acquire B cells, human PBMC were isolated from the peripheral blood of normal, drug free donors by standard density gradient centrifugation on Ficoll-Hypague (GE Healthcare, Piscataway, N.J.) and incubated with anti-CD19 microbeads (Miltenyi Biotech, Auburn, Calif.). The B cells were then purified by positive immunosorting using an autoMacs (Miltenyi Biotech) according to the manufacturer's instruction.
The purified B cells (2×10^5/well/200 μL) were cultured in 96-well ultra-low binding plates (Corning, Corning, N.Y.) in RPMI1640, 10% FBS and goat F(ab′)2 anti-human IgM (10 μg/ml) (Invitrogen, Carlsbad, Calif.), in the presence of different amount of test compounds, for three days. [^3H]-thymidine (1 μCi/well) (PerkinElmer, Boston, Mass.) in PBS was then added to the B cell cultures for an additional 12 hrs before the incorporated radioactivity was separated by filtration with water through GF/B filters (Packard Bioscience, Meriden, Conn.) and measured by liquid scintillation counting with a TopCount (Packard Bioscience). Compounds having and IC^50 value of 10 μM or less are considered active. See Table 2 for data related to compounds of the invention.

Structure (SMILES)	IC50 ([1]; Homo sapiens, Pfeiffer) [nM]	IC50 (PI3Kδ (p110δ/p85α) [2]) [nM]	IC50 (PI3Kγ) [nM]	IC50 ([1]; trifluoroacetic acid salt) [nM]	IC50 (PI3Kβ) [nM]	IC50 (PI3Kδ (p110δ/p85α) [3]) [nM]	IC50 [4] [nM]
Cc1csc2nc(C(C)Nc3nc(N)nc4[nH]cnc34)c(-c3cc(F)cc(F)c3)c(=O)n12 (single isomer, unassigned) [Example 23, 7-{1-[(2-amino-9H-purin-6-yl)amino]ethyl}-6-(3,5-difluorophenyl)-3-methyl-5H-[1,3]thiazolo[3,2-a]pyrimidin-5-one]	< 50	< 50	> 500				
Cc1cccc2nc(C(C)Nc3ncnc4[nH]cnc34)c(-c3cccc(F)c3)c(=O)n12 (single isomer, unassigned) [Example 71, 3-(3-Fluorophenyl)-6-methyl-2-[1-(9H-purin-6-ylamino)ethyl]-4H-pyrido[1,2-a]pyrimidin-4-one trifluoroacetic acid salt]		< 50	> 500	< 50			
Cc1csc2nc(C(C)Nc3ncnc4[nH]cnc34)c(-c3cccc(F)c3)c(=O)n12 (stereo not shown) [Example 10, 6-(3-fluorophenyl)-3-methyl-7-[1-(9H-purin-6-ylamino)ethyl]-5H-[1,3]thiazolo[3,2-a]pyrimidin-5-one]			> 500		> 500		
Cc1csc2nc(C(C)Nc3ncnc4[nH]cnc34)c(-c3cc(F)cc(F)c3)c(=O)n12 (stereo not shown) [Example 12, 6-(3,5-difluorophenyl)-3-methyl-7-[1-(9H-purin-6-ylamino)ethyl]-5H-[1,3]thiazolo[3,2-a]pyrimidin-5-one]		< 50				< 50	< 50
Cc1csc2nc([C@H](C)Nc3ncnc4[nH]cnc34)c(-c3cccc(F)c3)c(=O)n12 [Example 15, (S)-7-(1-(9H-purin-6-ylamino)ethyl)-6-(3-fluorophenyl)-3-methyl-5H-thiazolo[3,2-a]pyrimidin-5-one]			> 500		> 500		
